Columns and labels:
Assay in all cases: Off-target lipid hydrolase assay, Expi293 lysates
Type in all cases: biochemical
PNPLA9 = molecular target: T1, PNPLA9 (Homo sapiens, UniProt O60733); conditions: NG-497 100 µM, substrate PG
T1 construct: made in house; host or cells: Expi293 cells, lysate
Description: (§1) Fig. S3: Investigation of off-target effects of NG-497 on structurally and functionally related lipid hydrolases. (a) […]
(§2) NG-497, inhibited PNPLA1/CGI-58-dependent ω-O-acylceramide formation. (b-h) Enzymes were overexpressed in Expi293 cells and cell lysates were used as source of enzymatic activity. Cell lysates were incubated with the indicated substrates 1-oleoyl phosphatidylcholine (LPC), di-oleoyl phosphatidic acid (PA), di-octanoyl phosphatidylglycerol (PG), or para-nitrophenylvalerate (pNPV). Experiments were performed in the presence or absence of NG-497 (100 µM) and the formation of reaction products was monitored. Cell lysates of LacZ-transfected cells were used to detect basal cellular activity. As positive controls, enzymes were inactivated with lipase inhibitors Orlistat (40 µM), R-BEL (10 µM), KLH-45 (20 nM), HSLi (10 µM), or PMSF (10µM).
(§3) Data were calculated relative to the basal activity detected in LacZ-transfected controls. […]
(§4) LPL activity was inhibited using an anti-LPL antibody. All data are presented as mean ± S.D. Statistical significance was determined via ANOVA followed by Bonferroni post hoc test ( ***, p < 0.001).
(§5) (1 picture or pasted object on this page, not shown here) […]
(§6) 2-mercaptoethanol, 4% sodium dodecyl sulfate, 20% glycerin, bromophenol blue) at 98°C for 10 min. For detection of protein expression, anti-Xpress (Thermo Fisher Scientific #R910-25), anti-mouse-HRP Trueblot (Rockland #18-8817-33), and anti-FLAG HRP (MiliporeSigma #A8592) antibodies were used.
(§7) Analysis of toxicity in HepG2 hepatocytes. For LDH-based viability assays, HepG2 cells were seeded in 96-well plates in DMEM (Gibco) containing 100 IU/ml penicillin, 100 IU/ml streptomycin (MilliporeSigma), and 3% heat-inactivated FCS. […]
(§8) Serum stability of ATGL inhibitors. Inhibitors were incubated in 200 µl human serum for 0 and 3 h at 37°C and extracted in 1 ml MTBE/methanol (3/1, v/v) containing acetic acid/butylated hydroxytoluene (500nM). The extraction mixture was shaken at 1,400 x rpm for 1 h at RT and centrifuged for 10 min at 13,000 x rpm for phase separation. 700 µl of the upper, organic phase were collected, dried under a stream of nitrogen, and lipids resolved in 200 µl methanol/isopropanol/H2O (6/3/1), for UPLC- […]
(§9) Chromatographic separation was modified after Knittelfelder et al.2 using an AQUITY UPLC system (Waters Corporation, Milford, USA) equipped with a ZORBAX Eclipse XDB-C18- column (3 × 30 mm, 1.8 µm; Agilent Technologies, Santa Clara, USA) starting a 15 min gradient with 80% solvent A (water/methanol, 1/1, v/v) and 20% solvent B (2-propanol). Both solvents contained ammonium acetate (10 mM), formic acid (0.1 vol%) and phosphoric acid (8 µM) and the column was kept at 50°C. […]

PNPLA8 = molecular target: T2, PNPLA8 (Homo sapiens, UniProt Q9NP80); conditions: NG-497 100 µM, substrate PA
T2 construct: made in house; host or cells: Expi293 cells, lysate
Description: as §1, §2, §3, §4, §5, §6, §7, §8, §9

PNPLA7 = molecular target: T3, PNPLA7 (Homo sapiens, UniProt Q6ZV29); conditions: NG-497 100 µM, substrate LPC
T3 construct: made in house; host or cells: Expi293 cells, lysate
Description: as §1, §2, §3, §4, §5, §6, §7, §8, §9

PNPLA6 = molecular target: T4, PNPLA6 (Homo sapiens, UniProt Q8IY17); conditions: NG-497 100 µM, substrate LPC
T4 construct: made in house; host or cells: Expi293 cells, lysate
Description: as §1, §2, §3, §4, §5, §6, §7, §8, §9

T4 sequence (Q8IY17 whole entry): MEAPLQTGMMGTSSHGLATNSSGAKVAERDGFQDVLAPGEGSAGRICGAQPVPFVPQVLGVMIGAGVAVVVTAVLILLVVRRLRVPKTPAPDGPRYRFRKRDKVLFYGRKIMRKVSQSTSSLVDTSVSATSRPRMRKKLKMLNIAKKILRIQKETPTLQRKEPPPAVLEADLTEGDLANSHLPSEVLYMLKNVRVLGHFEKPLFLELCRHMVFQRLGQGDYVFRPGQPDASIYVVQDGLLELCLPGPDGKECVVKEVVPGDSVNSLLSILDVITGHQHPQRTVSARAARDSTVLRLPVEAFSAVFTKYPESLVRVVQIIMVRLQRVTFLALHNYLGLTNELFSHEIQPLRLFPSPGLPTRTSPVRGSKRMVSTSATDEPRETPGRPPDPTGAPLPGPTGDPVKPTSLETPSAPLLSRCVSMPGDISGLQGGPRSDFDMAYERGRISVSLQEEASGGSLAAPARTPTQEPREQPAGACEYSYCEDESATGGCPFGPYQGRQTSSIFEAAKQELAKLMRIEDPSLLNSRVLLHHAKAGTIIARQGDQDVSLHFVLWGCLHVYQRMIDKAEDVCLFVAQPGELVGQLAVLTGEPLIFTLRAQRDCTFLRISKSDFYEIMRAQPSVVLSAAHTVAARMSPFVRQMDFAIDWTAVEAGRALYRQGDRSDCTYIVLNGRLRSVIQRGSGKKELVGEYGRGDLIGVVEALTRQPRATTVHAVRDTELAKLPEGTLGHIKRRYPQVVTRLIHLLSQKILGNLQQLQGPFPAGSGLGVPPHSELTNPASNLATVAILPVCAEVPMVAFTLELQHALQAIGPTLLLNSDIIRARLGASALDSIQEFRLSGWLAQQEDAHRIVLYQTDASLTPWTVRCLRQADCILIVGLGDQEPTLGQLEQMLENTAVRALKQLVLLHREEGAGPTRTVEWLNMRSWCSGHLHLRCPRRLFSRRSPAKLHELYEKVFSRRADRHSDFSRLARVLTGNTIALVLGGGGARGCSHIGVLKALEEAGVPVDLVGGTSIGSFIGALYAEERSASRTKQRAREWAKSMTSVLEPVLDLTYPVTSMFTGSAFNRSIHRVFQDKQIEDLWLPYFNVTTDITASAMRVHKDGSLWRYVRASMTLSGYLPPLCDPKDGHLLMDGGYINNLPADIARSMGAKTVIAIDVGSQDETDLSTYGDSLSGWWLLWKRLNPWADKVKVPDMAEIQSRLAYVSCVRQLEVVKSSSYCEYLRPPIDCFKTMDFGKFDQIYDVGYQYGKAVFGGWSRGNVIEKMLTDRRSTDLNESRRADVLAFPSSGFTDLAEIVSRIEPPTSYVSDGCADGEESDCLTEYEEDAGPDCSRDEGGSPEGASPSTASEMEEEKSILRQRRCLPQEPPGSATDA
T1 sequence (O60733 whole entry): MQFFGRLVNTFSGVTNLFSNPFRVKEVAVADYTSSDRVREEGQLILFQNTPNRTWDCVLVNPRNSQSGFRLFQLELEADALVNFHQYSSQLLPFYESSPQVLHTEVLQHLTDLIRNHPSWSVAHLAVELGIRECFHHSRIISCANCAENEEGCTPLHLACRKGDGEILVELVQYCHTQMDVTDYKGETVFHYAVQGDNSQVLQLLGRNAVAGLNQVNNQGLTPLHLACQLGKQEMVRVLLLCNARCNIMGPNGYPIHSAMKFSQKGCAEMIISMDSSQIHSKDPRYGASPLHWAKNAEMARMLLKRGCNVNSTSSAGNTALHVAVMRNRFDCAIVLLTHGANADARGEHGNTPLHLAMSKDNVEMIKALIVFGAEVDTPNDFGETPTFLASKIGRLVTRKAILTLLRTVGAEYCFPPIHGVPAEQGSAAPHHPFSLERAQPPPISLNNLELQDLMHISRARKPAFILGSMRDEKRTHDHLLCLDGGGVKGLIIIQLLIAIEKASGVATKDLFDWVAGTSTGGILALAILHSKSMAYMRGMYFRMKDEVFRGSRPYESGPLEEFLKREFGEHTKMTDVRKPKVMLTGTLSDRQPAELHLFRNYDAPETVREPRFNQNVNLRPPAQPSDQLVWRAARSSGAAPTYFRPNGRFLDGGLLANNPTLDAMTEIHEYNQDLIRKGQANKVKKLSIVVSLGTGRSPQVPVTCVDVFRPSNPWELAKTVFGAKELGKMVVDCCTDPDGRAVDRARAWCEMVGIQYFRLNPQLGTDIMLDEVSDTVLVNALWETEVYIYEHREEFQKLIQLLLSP
T3 sequence (Q6ZV29 whole entry): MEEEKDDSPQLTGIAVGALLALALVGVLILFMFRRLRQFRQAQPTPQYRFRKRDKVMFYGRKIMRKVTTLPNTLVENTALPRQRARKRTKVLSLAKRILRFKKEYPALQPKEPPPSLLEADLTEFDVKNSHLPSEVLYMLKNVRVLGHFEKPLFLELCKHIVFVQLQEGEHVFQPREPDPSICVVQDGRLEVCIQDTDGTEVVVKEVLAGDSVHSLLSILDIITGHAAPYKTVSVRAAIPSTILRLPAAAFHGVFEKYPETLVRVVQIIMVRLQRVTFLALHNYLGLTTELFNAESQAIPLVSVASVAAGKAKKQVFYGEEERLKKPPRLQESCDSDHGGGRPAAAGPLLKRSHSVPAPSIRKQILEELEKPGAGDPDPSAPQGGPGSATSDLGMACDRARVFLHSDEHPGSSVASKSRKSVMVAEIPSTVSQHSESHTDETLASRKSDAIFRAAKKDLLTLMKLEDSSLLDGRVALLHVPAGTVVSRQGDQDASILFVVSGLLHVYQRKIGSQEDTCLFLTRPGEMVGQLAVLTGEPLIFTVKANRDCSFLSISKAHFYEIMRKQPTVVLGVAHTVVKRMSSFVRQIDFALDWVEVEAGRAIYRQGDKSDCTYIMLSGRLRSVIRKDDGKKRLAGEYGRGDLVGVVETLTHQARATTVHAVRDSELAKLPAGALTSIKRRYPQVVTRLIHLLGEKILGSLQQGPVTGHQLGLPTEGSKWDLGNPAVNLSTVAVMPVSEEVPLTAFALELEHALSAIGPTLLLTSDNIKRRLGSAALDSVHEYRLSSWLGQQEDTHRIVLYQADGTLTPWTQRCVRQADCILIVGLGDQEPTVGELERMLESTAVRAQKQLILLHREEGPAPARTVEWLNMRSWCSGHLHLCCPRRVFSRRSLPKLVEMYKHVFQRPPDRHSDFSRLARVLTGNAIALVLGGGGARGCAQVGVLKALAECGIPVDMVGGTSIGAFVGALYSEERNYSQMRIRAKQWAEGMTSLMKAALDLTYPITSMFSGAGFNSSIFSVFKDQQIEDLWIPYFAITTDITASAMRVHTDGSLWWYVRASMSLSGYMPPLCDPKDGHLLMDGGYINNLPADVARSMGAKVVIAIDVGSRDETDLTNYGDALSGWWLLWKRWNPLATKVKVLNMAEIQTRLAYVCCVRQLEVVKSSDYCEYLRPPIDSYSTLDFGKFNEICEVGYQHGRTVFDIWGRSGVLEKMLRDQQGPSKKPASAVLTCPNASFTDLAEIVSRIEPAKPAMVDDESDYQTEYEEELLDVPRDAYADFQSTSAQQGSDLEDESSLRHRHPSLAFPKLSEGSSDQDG
T2 sequence (Q9NP80 whole entry): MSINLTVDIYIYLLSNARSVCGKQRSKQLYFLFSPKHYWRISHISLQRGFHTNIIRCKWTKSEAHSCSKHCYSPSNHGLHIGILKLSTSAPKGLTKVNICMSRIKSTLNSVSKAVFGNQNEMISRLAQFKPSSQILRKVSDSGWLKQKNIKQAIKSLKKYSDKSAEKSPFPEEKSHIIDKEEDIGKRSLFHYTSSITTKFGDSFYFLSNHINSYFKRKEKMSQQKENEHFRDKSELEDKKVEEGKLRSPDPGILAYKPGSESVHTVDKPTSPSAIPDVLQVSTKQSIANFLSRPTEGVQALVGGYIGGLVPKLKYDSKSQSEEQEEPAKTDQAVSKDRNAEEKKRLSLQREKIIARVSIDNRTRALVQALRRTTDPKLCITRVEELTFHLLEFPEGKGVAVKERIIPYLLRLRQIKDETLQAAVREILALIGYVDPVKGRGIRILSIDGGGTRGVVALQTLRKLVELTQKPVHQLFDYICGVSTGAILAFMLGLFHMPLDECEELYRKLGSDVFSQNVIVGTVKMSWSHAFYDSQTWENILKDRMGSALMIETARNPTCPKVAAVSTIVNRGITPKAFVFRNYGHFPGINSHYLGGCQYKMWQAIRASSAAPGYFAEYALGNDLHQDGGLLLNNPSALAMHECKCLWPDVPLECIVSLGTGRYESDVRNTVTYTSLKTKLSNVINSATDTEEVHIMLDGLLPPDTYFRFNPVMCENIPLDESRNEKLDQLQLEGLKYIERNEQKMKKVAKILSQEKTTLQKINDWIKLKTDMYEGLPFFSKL

CCOc1ccc(-c2cc(OC)cc(C(=O)OC(C)C)n2)cc1 [NG-497]
did not observe inhibition: inhibition of PNPLA9 (PNPLA9) | inhibition of PNPLA8 (PNPLA8) | inhibition of PNPLA7 (PNPLA7) | inhibition of PNPLA6 (PNPLA6)

— PMC9011347, “Small-Molecule Inhibitors Targeting Lipolysis in Human Adipocytes” (Journal of the American Chemical Society, 2022)
